The values below come from PMC7033278, “A Nonpeptide Oxytocin Receptor Agonist for a Durable Relief of Inflammatory Pain” (Scientific Reports, 2020).

The nature of series [1]: distribution and clearance after i.p. injection, LC-MS/MS. In kind it is in vivo. The conditions noted are these: ip, rat, 10 mg/kg i.p. The protocol:
Brains from rat injected with 10 mg/kg (18.8 µmol/kg) i.p. of LIT-001 were homogenized with an Ultra Turrax instrument (Ika, Staufen, Germany) in 2 ml of H2O (Figs. 4, S4). The homogenates were then sonicated (3 times 10 s, 100 W) with a Vibra Cell apparatus (Sonics, Newtown, U.S.A.). Protein concentrations were determined using the Bradford method (Protein Assay, Bio-Rad, Marne-la-Coquette, France). 400 µl was mixed with 4 ml of ice cold acetonitrile (ACN) and let 30 min on ice. Samples were then centrifuged (20,000 × g, 30 min) at 4 °C. Supernatants were dried under vacuum and resuspended in 400 µl ACN 10%/H2O 89.9%/formic acid 0.1% (v/v/v) and a volume of 5 µl was injected on the LC-MS/MS. For CSF, plasma and urine, 200 µl of fluids were mixed with 1 ml of ice cold acetonitrile (ACN) and let 30 min on ice. Samples were then centrifuged (20,000 × g, 30 min) at 4 °C. Supernatants were dried under vacuum and suspended in 200 µl ACN 10%/H2O 89.9%/formic acid 0.1% (v/v/v) and a volume of 5 µl was injected on the LC-MS/MS.
Analyses were performed on a Dionex Ultimate 3000 HPLC system (Thermo Scientific, San Jose, USA) coupled with a triple quadrupole Endura mass spectrometer (Thermo Scientific). The system was controlled by Xcalibur v.2.0 software (Thermo Electron). Samples were loaded onto an Accucore C18 RP-MS column (ref 17126–151030; 150 × 1 mm 2.6 μm, Thermo Scientific) heated at 40 °C. The presence of LIT-001 was studied using the multiple reaction monitoring mode (MRM). Elution was performed at a flow rate of 150 µl/min by applying a linear gradient of mobile phases A/B. Mobile phase A corresponded to ACN 1%/H2O 98.9%/formic acid 0.1% (v/v/v), whereas mobile phase B was ACN 99.9%/formic acid 0.1% (v/v). The gradient used is detailed in Fig. S4. […] Desolvation (nitrogen) sheath gas was set to 27 Arb and Aux gas was set to 9 Arb. The ion transfer tube was heated at 312 °C. Q1 and Q2 resolutions were set at 0.7 FWHM, whereas collision gas (CID, argon) was set to 2 mTorr. Identification of the compounds was based on precursor ion, selective fragment ions and retention times obtained for LIT-001. Selection of the monitored transitions and optimization of collision energy and RF Lens parameters were manually determined (see Fig. S4 for details). Qualification and quantification were performed in MRM mode. Quantification was obtained using Quan Browser software (Thermo Scientific). For tissues and fluids, LIT-001 was quantified using calibration curves of external standards of LIT-001 (125 fmol to 100 pmol/injection; Fig. S4) added to urine, plasma or brain extracts of naive rat and submitted to the same procedure described for respective fluids and tissue recovery. The amounts of LIT-001 measured in samples fit within the standard curve limits, with typical analytical ranges (the range of amounts that can be accurately quantified) from […].

Series [2] has as its system V2 vasopressin receptor (V2R). The arrangement: method as in PMID 30199637. The conditions noted are these: cited from earlier work.
The target in series [3] is T1, ionotropic TRPV1 receptor (Homo sapiens, UniProt Q8NER1).
T1 construct: Eurofins (contract assay)
T1 sequence (Q8NER1 whole entry): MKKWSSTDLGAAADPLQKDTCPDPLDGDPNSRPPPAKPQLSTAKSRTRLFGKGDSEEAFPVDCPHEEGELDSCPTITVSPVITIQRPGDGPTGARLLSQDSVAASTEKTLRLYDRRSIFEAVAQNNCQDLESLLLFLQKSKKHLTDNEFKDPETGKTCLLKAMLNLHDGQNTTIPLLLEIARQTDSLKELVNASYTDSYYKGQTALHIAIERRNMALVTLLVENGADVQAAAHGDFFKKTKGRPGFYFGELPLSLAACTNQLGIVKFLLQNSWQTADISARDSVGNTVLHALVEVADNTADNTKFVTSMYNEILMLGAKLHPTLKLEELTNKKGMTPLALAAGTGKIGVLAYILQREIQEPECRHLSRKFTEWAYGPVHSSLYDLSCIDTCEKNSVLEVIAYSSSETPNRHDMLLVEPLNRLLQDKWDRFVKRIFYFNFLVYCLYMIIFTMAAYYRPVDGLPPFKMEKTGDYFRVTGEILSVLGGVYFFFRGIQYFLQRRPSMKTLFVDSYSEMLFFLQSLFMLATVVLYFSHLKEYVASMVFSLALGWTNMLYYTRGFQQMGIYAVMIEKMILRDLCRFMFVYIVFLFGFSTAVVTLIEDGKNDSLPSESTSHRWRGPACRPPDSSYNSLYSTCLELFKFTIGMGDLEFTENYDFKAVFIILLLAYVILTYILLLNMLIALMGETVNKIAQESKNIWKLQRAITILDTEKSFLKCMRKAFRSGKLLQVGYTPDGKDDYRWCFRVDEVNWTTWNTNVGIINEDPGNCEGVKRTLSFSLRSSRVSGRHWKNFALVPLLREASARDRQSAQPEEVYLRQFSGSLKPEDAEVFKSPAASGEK
The experiment in a line: Eurofins functional profiling, TRPV1 agonist/antagonist. Type of series: cell-based. The conditions noted are these: 5 μM. The protocol:
In vitro profiling of LIT-001 was performed by Eurofins as described in the Eurofins SafetyScreen-Functional panel, 2018[31]. The hepatotoxicity of LIT-001 was studied with cryo-preserved mouse hepatocytes. After unfreezing (optiTHAW and optiINCUBATE media, Xenotech) and cell viability control, cells (2 × 10^6 cells/ml) were dispatched in 96 well microtiterplates. LIT-001 was added to reach a concentration 1 μM in the presence of 1 × 10^6 cells/mL in a volume of 100 μl/well. The incubation was stopped at 4, 20, 40, 80 and 120 min in adding 100 μl of acetonitrile at 0 °C. A positive control was treated in the same conditions. All samples were analyzed by UHPLC coupled to a mass spectrometer (Shimadzu LC-MS 8030).

In series [4] the test system is CFA-induced inflammatory pain model. The series is described as follows: CFA-induced edema size (hindpaw diameter). Particulars: rat, i.p. LIT-001 10 mg/kg at D1 after CFA. Type of series: in vivo. The protocol:
LIT-001 was prepared as described in Frantz et al.[20]. For in vivo biological assays, it was dissolved in carboxymethyl cellulose (CMC, 1%) - NaCl (0.9%) and administered at the dose of 10 mg/kg. LIT-001 or vehicle were injected intraperitoneally (i.p.), in a volume of 10 ml/kg[20], 24 h after the induction of the CFA-induced painful inflammatory sensitization. To confirm the implication of the OTR we injected (i.p.) also L-368,899 (Sigma, St. Louis, MO) (1 mg/kg), an OTR antagonist, in combination with LIT-001 in another group of rats[11].
Male Wistar rats (300 g; JANVIER LABS, Le Genest St. Isle, France) were used for this study. They were housed by groups of 3 or 4 under standard conditions (room temperature, 22 °C; 12/12 h light/dark cycle) with ad libitum access to food and water and behavioral enrichment. All animals were manipulated and habituated to the tests and to the room for at least 2 weeks. All behavioral tests were done during the light period (i.e., between 7:00 and 19:00). All the procedures were performed in accordance with European committee council Direction, authorization from French Department of Agriculture and from the regional ethic committee.
In order to induce a peripheral inflammation, 100 μl of complete Freund adjuvant (CFA; Sigma, St. Louis, MO), was injected in the right hindpaw of the rat. […]

The subject of series [5] is V1bR (hV1BR). Further details: method as in PMID 30199637. Particulars: cited from earlier work.
Where [6] appears, read: CSF, read-out: concentration in CSF.
Setting [7] is: brain, read-out: concentration in brain.
[8] abbreviates: plasma, read-out: concentration in plasma.
Where [9] appears, read: urine, read-out: concentration in urine.

“Also recorded” adds a separate entry of the source. Like-named read-outs stand apart in the source and are kept apart here.

For the compound `Cc1cc(C(=O)N2Cc3cnn(C)c3Nc3ccccc32)ccc1CNC(=O)N1CCC[C@H]1C(=S)N(C)C` [LIT-001], the concentration at 60 min in series [1] (setting [6]) was found to be 7.4 ± 4.4 nM; in series [1] (setting [7]), 1.6 ± 0.8 nM; in series [1] (setting [8]), 626 ± 112 nM; in series [1] (setting [9]), 52500 ± 14200 nM. The concentration at 300 min stood at 1.5 ± 1.1 nM in series [1] (setting [6]), 0.6 ± 0.4 nM in series [1] (setting [7]), 95.2 ± 36.5 nM in series [1] (setting [8]) and 189000 ± 8480 nM in series [1] (setting [9]). Moreover, the concentration at 30 min in series [1] (plasma, 30 min (highest)) was determined as 650 ± 200 nM. Also, in series [2], the “V2R agonism in functional assays” value is reported as “potent V2R agonist”. Further, the “agonist or antagonist activity at TRPV1 receptor” value in series [3] is on record as “No significant agonist or antagonist; also recorded: neither LIT-001 nor the OT antagonist L-368,699 displayed any significant agonist or antagonist activity”. Besides, the CFA-induced edema size in series [4] is reported as 9.49 ± 0.23 mm. In addition, the “EC50 (hV1BR)” value in series [5] (agonist mode) is “non significant”. The “agonist or antagonist effect on V1bR” value in series [5] was “devoid of agonist or antagonist effect”.
